Source: patent US7067277B1, “Chimeric G proteins and uses thereof” (H. Lundbeck A/S, priority 1999, dated 2006)

Target: T1, Human NPFF1 (Homo sapiens, UniProt Q9GZQ6)
T1 construct: linearized plasmids or PCR products containing the complete coding region of the genes; expressed in transfected cells; host or cells: Xenopus laevis oocytes (receptor cRNA injected)
Assay: Cl- current recording in Xenopus oocytes expressing GPCR and chimeric G protein
Type: cell-based
Conditions: oocytes injected with 50 nl of 10 mM EGTA
Experimental: Oocytes were harvested from Xenopus laevis and injected with mRNA transcripts as previously described (Quick and Lester, 1994; Smith et al., 1997). Receptor and chimeric G protein α subunit RNA transcripts were synthesized using the T7 polymerase (“Message Machine,” Ambion) from linearized plasmids or PCR products containing the complete coding region of the genes. Oocytes were injected with 5–25 ng synthetic receptor RNA and incubated for 3–8 days at 17 degrees. Three to eight hours prior to recording, oocytes were injected with 500 pg chimeric Gα subunit mRNA. Dual electrode voltage clamp (Axon Instruments Inc.) was performed using 3 M KCl-filled glass microelectrodes having resistances of 1–2 MOhm. Unless otherwise specified, oocytes were voltage clamped at a holding potential of −80 mV. During recordings, oocytes were bathed in continuously flowing (1–3 ml/min) medium containing 96 mM NaCl, 2 mM KCl, 1.8 mM CaCl2, 1 mM MgCl2, and 5 mM HEPES, pH 7.5 (ND96). Drugs were applied by local perfusion from a 10 μl glass capillary tube fixed at a distance of 0.5 mm from the oocyte. Experiments were carried out at room temperature. All values are expressed as mean±standard error of the mean.

T1 sequence (Q9GZQ6 whole entry): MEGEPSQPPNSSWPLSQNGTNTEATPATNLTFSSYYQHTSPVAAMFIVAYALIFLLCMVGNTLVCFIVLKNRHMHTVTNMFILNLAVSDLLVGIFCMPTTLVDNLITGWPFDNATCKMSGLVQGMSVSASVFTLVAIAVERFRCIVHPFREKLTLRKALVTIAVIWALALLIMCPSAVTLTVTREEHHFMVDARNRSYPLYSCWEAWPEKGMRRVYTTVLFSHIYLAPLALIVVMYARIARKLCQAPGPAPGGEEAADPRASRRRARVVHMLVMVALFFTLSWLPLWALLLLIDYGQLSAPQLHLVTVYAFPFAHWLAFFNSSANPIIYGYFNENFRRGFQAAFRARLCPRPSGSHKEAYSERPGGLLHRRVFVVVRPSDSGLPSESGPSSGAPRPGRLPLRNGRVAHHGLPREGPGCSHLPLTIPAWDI

currents stimulated by NPFF in oocytes expressing NPFF1 and cGαq/z5: blocked
SMILES: O=C(O)CN(CCOCCOCCN(CC(=O)O)CC(=O)O)CC(=O)O [EGTA, reference compound]
